Key:
[1] = Determination of the half-life in vivo by imaging healthy mice with 68Ga-TEFAPI-06; conditions: PET imaging, SUV at the heart, 68Ga label, tail vein injection; for half-life: mouse, blood, intravenous, 37 MBq
Protocol: A germanium-gallium generator was eluted with 5 mL of 0.6 M high-purity hydrochloric acid to obtain Ga-68 hydrochloric acid solution. 1 mL of the eluted Ga-68 solution was taken, 100 μL of 3M sodium hydroxide and 130 μL of 3M sodium acetate were added to adjust the acidity, the final pH was 4.0, 50 μg of TEFAPI-06 precursor was added, and the reaction mixture was heated to 90° C., and maintained at the temperature for 10 minutes. The reaction solution was passed through a C18 column to remove free ions, and then the C18 column was eluted with ethanol solution. Labeled ^68Ga-TEFAPI-06 was obtained.
37 MBq labeled product was taken, 200 μL of normal saline was added for dilution, the drug was drawn with an insulin syringe for later use, and ethanol content in the drug was not higher than 5%. Healthy mice were anesthetized in advance and then placed on a PET/CT collection bed and an indwelling needle was placed at the tail vein. The syringe was attached to the indwelling needle, and collection of PET data was started at the zero moment of needle pushing. Collection time points were 0-60 min, 2 h, 3 h, 4 h, and 5 h respectively. After the collection, the data was reconstructed with professional software, and reconstruction conditions were to reconstruct the data at intervals of every minute for the first 5 minutes, reconstruct the data every 5 minutes in 5-60 minutes, and reconstruct the data at each of the other time points. The collected data was processed by PET reconstruction software to obtain continuous image. In PET processing software, a fixed region was depicted at the heart of the mouse, and SUV-Mean and SUV-Max values at the heart were obtained. The obtained SUV was simulated via data processing software.

FAP = experiment: Competitive inhibition experiment of TEFAPI-06 in mice with PDX pancreatic cancer (68Ga-FAPI-04 PET); assay type: in vivo
Protocol: In order to verify the specificity of TEFAPI-06 against a FAP target, the inventors performed PET imaging on the same batch of mice before and after inhibition in the competitive inhibition experiment. According to the Y-86 long-duration PET imaging, the uptake of the tumor reached a peak between 18 hours and 24 hours after drug injection. Therefore, ^68Ga-FAPI-04 imaging was first performed on tumor-bearing mice to determine that the mice had tumor uptake. After 48 hours of standing to ensure metabolism of ^68Ga-FAPI-04, two mice were injected with 300 μg of TEFAPI-06 molecules, and 18 hours after injection, PET molecular imaging of ^68Ga-FAPI-04 was performed on the mice injected with TEFAPI-06 molecules.

[2] = system: PDX mouse model of pancreatic cancer; experiment: Long-duration PET imaging with 86Y-TEFAPI-06 in a PDX mouse model of pancreatic cancer; assay type: in vivo; conditions: after 18 hours
Protocol: Y-86 is a positron nuclide with half-life of 14.6 hours and can be radiolabeled with DOTA, and therefore, is very suitable for long-duration detection of the distribution of TEFAPI molecule in vivo. 1 mL of Y-86 hydrochloric acid was taken, 100 μL of 3M sodium hydroxide and 130 μL of 3M sodium acetate were added to adjust acidity, the final pH was 4.0, 50 μg of TEFAPI-06 precursor was added, and the reaction mixture was heated to 90° C., and maintained at the temperature for 10 minutes. The reaction solution was passed through a C18 column to remove free ions, and then the C18 column was eluted with ethanol solution. Labeled ^86Y-TEFAPI-06 was obtained. The labeled ^86Y-TEFAPI-06 was diluted with normal saline, and 7.4 Mbq of the resulting solution was injected to each mouse. PET scanning imaging was performed at 0.5, 2, 6, 12, 18, 24 and 36 h after injection, and PET image processing software was used for reconstruction. The obtained PET image is shown in FIG. 3, SUV values were marked at the tumor and heart of the mouse, and a curve was obtained based on the change of the SUV value with time.

PDX pancreatic cancer = experiment: Treatment of PDX pancreatic cancer in mice with 177Lu-TEFAPI-06; assay type: in vivo; conditions: Lu-177 label, treatment dose 3.7 MBq
Text: There were 5 mice in each group. The treatment dose was 3.7 MBq. […] In order to evaluate the therapeutic effect, the inventors performed physical examination via FAPI-04 imaging on mice before and after the treatment, and the results are shown in FIG. 5.

half-life [1] [h]	blood half-life [1] [h]	kidney metabolism [2]	SMILES	tumor uptake of 68Ga-FAPI-04 after injection of TEFAPI-06 (inhibition) (FAP; 300 μg TEFAPI-06, 18 hours before 68Ga-FAPI-04 PET, read 30 minutes after injection)	target site (specificity) (FAP; conclusion of competitive inhibition experiment)	tumor/normal tissue uptake ratio [2]	tumor growth (tumor growth curve) (PDX pancreatic cancer)
0.433			N#C[C@@H]1CC(F)(F)CN1C(=O)CNC(=O)c1ccnc2ccc(OCCCN3CCN(C(=O)CN4CCN(CC(=O)O)CCN(CC(=O)O)CCN(CC(=O)O)CC4)CC3)cc12 [FAPI-04, reference compound]				
6.67	6.63	basically cleared	N#C[C@@H]1CC(F)(F)CN1C(=O)CNC(=O)c1ccnc2ccc(OCCCN3CCN(C(=O)[C@H](CCCCNC(=O)CN4CCN(CC(=O)O)CCN(CC(=O)O)CCN(CC(=O)O)CC4)NC(=O)CCCC(=O)NC(CCCCNC(=O)CCCc4ccc(I)cc4)C(=O)O)CC3)cc12 (some centres unmarked) [TEFAPI-06]	basically no additional uptake at the tumor	FAP	greater than 10	significantly inhibited

Reference: patent US20240042066A1, “FIBROBLAST ACTIVATION PROTEIN INHIBITOR” (BOOMRAY PHARMACEUTICALS CO., LTD., priority 2020, published 2024)
